Data as given in US10793509B2, “Compounds useful in the treatment of neoplastic diseases” (UNIVERSITÄT ZU KÖLN, priority 2013, dated 2020).

What was measured:
MEC-1 = assay: CellTiter-Glo ATP assay, MEC-1 cell line; format: cell-based; conditions: 24 h
Description: (§1) Several cell lines (n=5) were treated with different concentrations of p-NO-ASA, B9, B12 and B13 ranging between 0.01 μM and 1000 μM for 24 hours followed by addition of luminogenic CellTiter-Glo®-reagent. […] For each cell line the order of used compound in the bar chart is from left to right as following: p-NO-ASA, B9, B12, B13.
(§2) Treatment success in CLL may depend on cytogenetic and molecular parameters as for instance del13q or TP53 gene disruption. Therefore, the NO-ASA derivatives were examined on (chronic) B cell lymphoma cell lines with different geno- and phenotypes (JVM3, EHEB, U2932, MEC-1, GRANTA-519). The cells were treated with concentrations between 0.01 and 1000 μM for 24 h followed by the addition of luminogenic CellTiter-Glo® reagent.

EHEB = assay: CellTiter-Glo ATP assay, EHEB cell line; format: cell-based; conditions: 24 h, 0.01-1000 μM
Description: as §1, §2

[1] = system: SW480, MelJuso, HCC44, SH2 and COLO704 cell lines; format: cell-based; conditions: 24 h, 0.01-100 μM
Description: In the following experiment the possible therapeutic window for NO-ASA derivatives was investigated. […] The melanoma cell line MelJuso, the colon carcinoma cell line SW480, the small cell lung cancer cell line HCC44, the ovarian adenocarcinoma cell line COLO704 and the acute myeloid leukemia cell line SH2 were treated with concentrations of p-NO-ASA and B9, B12 and B13 in a range between 0.01 μM and 100 μM for 24 h, followed by addition of luminogenic CellTiter-Glo® reagent.

GRANTA-519 = assay: CellTiter-Glo ATP assay, GRANTA-519 cell line; format: cell-based; conditions: 24 h
Description: as §1, §2

[2] = system: phosphorylated NFkappaBp65 protein; assay: Western blot of NFkappaB phosphorylation status in CLL cells; format: cell-based, human; conditions: 3 h
Description: CLL cells were treated with B1, B9, B12 and B13 (0.1 μM, 1 μM, 10 μM) for 3 h. Untreated and DMSO (1%) treated cells served as control. GAPDH=loading control.
The BCR signalling pathway plays an important pathogenic role in CLL and lymphomas leading often to a constitutive active NFkappaB (in this state NFkappaB is phosphorylated). Therefore the influence of the derivatives on the phosphorylation status of NFkappaB was analyzed by Western Blot. CLL cells were treated with 0.1 μM, 1 μM or 10 μM of each derivate, respectively, for 3 h. CLL cells were treated with B1, B9, B12 and B13 (0.1 μM, 1 μM, 10 μM) for 3 h. Untreated and DMSO (1%) treated cells served as control. GAPDH=loading control.

[3] = system: peripheral blood mononuclear cells (PBMCs) of healthy donors; assay: AnnexinV/PI assay on PBMCs of healthy donors; format: cell-based; conditions: Homo sapiens, PBMC; 24 h incubation, 0.01-100 μM, 5*10^6 cells/ml, normalized to DMSO control; read-out: AnnexinV/PI assay EC50 PBMCs
Description: (§3) PBMCs or CLL cells (5*10^6 cells/ml) were incubated for 24 h with different compounds at concentrations from 0.01 to 100 μM. Cell survival was normalized to DMSO control [vehicle]. See Example 1.
(§4) Primary CLL or peripheral blood mononuclear cells of healthy donors (5*10^6/ml) were incubated for 24 h with different compounds according to the invention and NO-ASA as a control. The compounds were added in different concentrations, in particular in concentrations from 0.01-100 μM. Cell survival was assessed by AnnexinV/PI assay (Kit commercially available, e.g. by Biotium Inc, USA; or Phoenix Flow Systems, US), the results were normalized to DMSO control [vehicle] and dose response curves were calculated using a non-linear regression model.

caspases 3 and 7 = assay: caspase-3/7 assay in CLL cells; format: cell-based; conditions: Homo sapiens, CLL cell, 6 h, 0.01-20 μM, luminogenic caspase-3/7-substrate, read-out: activation of caspases 3 and 7, EC50
Excerpt: FIG. 8 depicts the involvement of caspase-mediated apoptosis in CLL cells upon treatment with p-NO-ASA, B9, B12 and B13. Representative blots of 3 independent experiments are shown. Untreated and DMSO (1%) treated cells served as control. beta-actin=loading control (FIG. 8A). para-NO-ASA and B9 induced a concentration-dependent increase in caspase-3/7-activation (FIG. 8B).
To determine whether the toxicity on CLL cells is due to caspase-mediated apoptosis, the cleavage of PARP (Poly(ADP-ribose)-Polymerase 1) and XIAP (X-linked inhibitor of apoptosis) was analyzed by immunoblot. CLL cells were cultured alone, with 1% DMSO or with EC50 of p-NO-ASA, meta-NO-ASA, B9, B12 and B13 for 24 h followed by protein lysation and western blot analysis using antibodies to detect prognostic apoptotic proteins (XIAP, PARP). […] All compounds tested induced PARP and XIAP cleavage (FIG. 8A). Further a caspase-3/7 assay was carried out. CLL cells were incubated with para-NO-ASA and B9 in different concentrations ranging from 0.01 μM to 20 μM for 6 h followed by addition of luminogenic caspase-3/7-substrate. This indicates the reduction of the survival of CLL cells upon treatment with p-NO-ASA and B9 due to the induction of caspase-mediated apoptosis.

JVM-3 = assay: CellTiter-Glo ATP assay, JVM-3 cell line; format: cell-based, human; conditions: 24 h, 0.01-1000 μM
Description: as §1, §2

Primary CLL cells = assay: AnnexinV/PI assay on primary CLL cells; format: cell-based, human
Description: as §3, §4

U2932 = assay: CellTiter-Glo ATP assay, U2932 cell line; format: cell-based; conditions: 24 h, 0.01-1000 μM
Description: as §1, §2

[4] = 0.01-1000 μM, compared to B9, B12, B13

## CC(=O)Oc1ccccc1C(=O)Oc1ccc(CO[N+](=O)[O-])cc1 [B1, 4-(nitrooxy)methyl phenyl-2-acetoxy benzoate, reference compound]
MEC-1; [4]
  effectiveness in MEC-1 (ATP content): significantly less effective
MEC-1; Homo sapiens, MEC1, CellTiter-Glo
  EC50: 53.4 µM
EHEB
  ATP content in EHEB: reduced ATP content
[1]
  ATP content in SW480, MelJuso, HCC44, SH2 and COLO704 cell lines: reduced ATP content
GRANTA-519; [4]
  effectiveness in GRANTA-519 (ATP content): significantly less effective
GRANTA-519; Homo sapiens, Granta-519, CellTiter-Glo
  EC50: 22.2 µM
[2]; CLL cells, 0.1, 1, 10 μM
  reduction of NFkappaB activity (phosphorylated NFkappaBp65): concentration dependent reduction
[2]; CLL cells
  concentration inducing the reduction of NFkappaB p65 protein: twofold concentration
[3]
  EC50: 47.2 µM
Caspases 3 and 7
  EC50: 1.84 µM
JVM-3
  ATP content in JVM-3: reduced ATP content
Primary CLL cells; FIG. 3, sensitivity of CLL cells vs PBMCs, 24 h
  selectivity for CLL cells compared to PBMCs: selective for CLL cells
Primary CLL cells; Homo sapiens, CLL cell, 24 h incubation, 0.01-100 μM, 5*10^6 cells/ml, normalized to DMSO control, read-out: AnnexinV/PI assay EC50 Primary CLL
  EC50: 6.7 µM
U2932
  ATP content in U2932: reduced ATP content
